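Method: 48-hour compound exposure of cells in 96-well plates, five concentrations, linear interpolation of endpoints. The concentration for 50% growth inhibition is given as GI50. Definition used: TGI = concentration required for complete inhibition of growth.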
Experiments:
Experiment in all cases: DTP human tumour cell line panel, 48 h
[1] = test system: SNB-19 CNS
[2] = test system: SK-MEL-5 melanoma
[3] = test system: OVCAR-3 ovarian
[4] = test system: OVCAR-4 ovarian
[5] = test system: LOX IMVI melanoma
[6] = test system: NCI-H23 lung
[7] = test system: IGROV1 ovarian
[8] = test system: MCF7 breast
[9] = test system: CAKI-1 renal
[10] = test system: NCI-H460 lung
[11] = test system: SN12C renal
[12] = test system: HOP-62 NSCLC
[13] = test system: MDA-MB-468 breast
[14] = test system: HCT-15 colon
[15] = test system: SK-MEL-28 melanoma
[16] = test system: K-562 leukemia
[17] = test system: COLO 205 colon
[18] = test system: M14 melanoma
[19] = test system: DU-145 prostate
[20] = test system: SW-620 colon
[21] = test system: BT-549 breast
[22] = test system: SK-OV-3 ovarian
[23] = test system: A549 NSCLC
[24] = test system: HCC-2998 colon
[25] = test system: UACC-62 melanoma
[26] = test system: SF-268 CNS
[27] = test system: UO-31 renal
[28] = test system: OVCAR-5 ovarian
[29] = test system: NCI-H226 lung
[30] = test system: KM12 colon
[31] = test system: RPMI-8226 leukemia
[32] = test system: EKVX NSCLC
[33] = test system: MALME-3M melanoma
[34] = test system: MDA-MB-435
[35] = test system: SF-295 CNS
[36] = test system: ACHN renal
[37] = test system: TK-10 renal
[38] = test system: HCT-116 colon
[39] = test system: PC-3 prostate
[40] = test system: HT29 colon
[41] = test system: OVCAR-8 ovarian
[42] = test system: CCRF-CEM leukemia
[43] = test system: MDA-MB-231 breast
[44] = test system: SR leukemia
[45] = test system: A498 renal
[46] = test system: MOLT-4 leukemia
[47] = test system: SK-MEL-2 melanoma
[48] = test system: HS 578T breast
[49] = test system: UACC-257 melanoma
[50] = test system: 786-0 renal
[51] = test system: SF-539 CNS
[52] = test system: RXF 393 renal

COc1ccc2[nH]cc(-c3cc4nc(-c5cn(C)c6ncc(Br)cc56)cc(N)n4n3)c2c1
GI50 [1]: 2450 nM
TGI [1]: 6630 nM
GI50 [2]: 1780 nM
TGI [2]: 3340 nM
GI50 [3]: 1810 nM
TGI [3]: 3490 nM
GI50 [4]: 1840 nM
TGI [4]: 3790 nM
GI50 [5]: 1650 nM
TGI [5]: 3110 nM
GI50 [6]: 1760 nM
TGI [6]: 3510 nM
GI50 [7]: 1650 nM
TGI [7]: 3430 nM
GI50 [8]: 1670 nM
TGI [8]: 3050 nM
GI50 [9]: 1410 nM
TGI [9]: 3540 nM
GI50 [10]: 1800 nM
TGI [10]: 3470 nM
GI50 [11]: 1700 nM
TGI [11]: 3300 nM
GI50 [12]: 2070 nM
TGI [12]: 5490 nM
GI50 [13]: 1420 nM
TGI [13]: 2860 nM
GI50 [14]: 1350 nM
TGI [14]: 2810 nM
GI50 [15]: 1670 nM
TGI [15]: 3080 nM
GI50 [16]: 2590 nM
TGI [16]: > 100000 nM
GI50 [17]: 1820 nM
TGI [17]: 3450 nM
GI50 [18]: 1830 nM
TGI [18]: 3550 nM
GI50 [19]: 1780 nM
TGI [19]: 3640 nM
GI50 [20]: 1750 nM
TGI [20]: 3350 nM
GI50 [21]: 2140 nM
TGI [21]: 4670 nM
GI50 [22]: 2380 nM
TGI [22]: 5640 nM
GI50 [23]: 1770 nM
TGI [23]: 5070 nM
GI50 [24]: 1740 nM
TGI [24]: 3170 nM
GI50 [25]: 1550 nM
TGI [25]: 3040 nM
GI50 [26]: 1840 nM
TGI [26]: 4330 nM
GI50 [27]: 1730 nM
TGI [27]: 4160 nM
GI50 [28]: 1590 nM
TGI [28]: 3440 nM
GI50 [29]: 1950 nM
TGI [29]: 3970 nM
GI50 [30]: 1990 nM
TGI [30]: 4420 nM
GI50 [31]: 2910 nM
TGI [31]: > 100000 nM
GI50 [32]: 1660 nM
TGI [32]: 3840 nM
GI50 [33]: 1680 nM
TGI [33]: 3170 nM
GI50 [34]: 1680 nM
TGI [34]: 3210 nM
GI50 [35]: 1570 nM
TGI [35]: 3070 nM
GI50 [36]: 1460 nM
TGI [36]: 3350 nM
GI50 [37]: 2480 nM
TGI [37]: 6390 nM
GI50 [38]: 1810 nM
TGI [38]: 3300 nM
GI50 [39]: 2540 nM
TGI [39]: 10300 nM
GI50 [40]: 1960 nM
TGI [40]: 3950 nM
GI50 [41]: 1860 nM
TGI [41]: 3660 nM
GI50 [42]: 2850 nM
TGI [42]: > 100000 nM
GI50 [43]: 1650 nM
TGI [43]: 3360 nM
GI50 [44]: 2740 nM
TGI [44]: > 100000 nM
GI50 [45]: 2220 nM
TGI [45]: 7010 nM
GI50 [46]: 2240 nM
TGI [46]: > 100000 nM
GI50 [47]: 1680 nM
TGI [47]: 3250 nM
GI50 [48]: 1800 nM
TGI [48]: 4580 nM
GI50 [49]: 1720 nM
TGI [49]: 3480 nM
GI50 [50]: 1770 nM
TGI [50]: 3290 nM
GI50 [51]: 1640 nM
TGI [51]: 3030 nM
GI50 [52]: 1730 nM
TGI [52]: 3230 nM
